Literature values in patent publication US7855206B2, “Tricyclic heteroaromatic compounds as dipeptidyl peptidase-IV inhibitors for the treatment or prevention of diabetes” (Merck Sharp & Dohme Corp., priority 2006, dated 2010).

What was measured:
[1] = test system: cardiac allograft in rats; conditions: doubled from day 7
[2] = test system: hematopoiesis in mouse; conditions: cyclophosphamide-induced neutropenia
[3] = test system: GRF degradation in plasma

CC(C)N1CCC(c2ccccc2)(c2ccccc2)CC1 [Prodipine, Pro-Pro-diphenyl-phosphonate]
cardiac allograft survival [1]: 14 day

CC(C)[C@H](N)C(=O)N1CCC[C@H]1B(O)O [Val-Boro-Pro]
effect on hematopoiesis [2]: stimulated hematopoiesis

CC[C@H](C)[C@H](N)C(=O)N1CCC[C@H]1C(=O)N[C@H](C(=O)O)[C@@H](C)CC [diprotin A]
effect on degradation of GRF to GRF[3-44] [3]: prevented
